Test results reported in US20080280860A1, “Use of Vitamin D Compounds to Treat Endometriosis” (BioXell S.p.A., priority 2005, published 2008).

Assays:
stromal cells = experiment: Real Time PCR for gene expression quantification in cultured cells; format: cell-based; conditions: 1 uM and 0.1 uM versus untreated
Procedure: Tissue was gently minced into small pieces (1 to 2 mm^3) and incubated at 37° C. for 1 h with 0.1% type A collagenase. At the end of the incubation, single stromal cells were separated from large clumps of epithelium by a 10 min. period of differential sedimentation at unity gravity. The top 8 ml of medium, containing predominantly stromal cells, were then slowly removed and the cells were collected by centrifugation. The stromal-enriched fraction was washed twice in culture medium and allowed to adhere selectively to tissue culture dishes for 15 min.
Thereafter, nonattached epithelial cells still present were removed and a purified stromal preparation was obtained on the surface of the culture dishes.
Cells were incubated at 37° C. in 3% FBS DMEM (without Compound A, with Compound A at 1 uM concentration or with Compound A at 0.1 uM concentration) or 10% FBS DMEM (without Compound A, with Compound A at 1 uM concentration or with Compound A at 0.1 uM concentration). After 4 or 8 hours of incubation cells were trypsinized and collected as a cell pellet.
For total RNA extraction it was used the RNeasy Mini Kit QIAGEN (cat. no. 74106) briefly described below.
Cells were distrupted by addition of Buffer RLT and the lysate was loaded onto a QlAshredder spin column (QIAGEN cat. no. 79656) placed in a 2 ml collection tube and centrifuged for 2 min at maximum speed. A volume of 70% ethanol was added to the homogenized lysate. The sample was loaded on an RNeasy mini column placed in a 2 ml collection tube and centrifuged for 15 sec at >10000 rpm. The RNA bound to the column was digested with a DNase treatment. The column was washed with Buffer RW1 and centrifuged for 15 sec at >10000 rpm. The sample was incubated with DNase I mix (RNase-Free Dnase Set QIAGEN cat. no. 79254) at room temperature for 15 min. […] RNA concentration was evaluated by NanoDrop Spectrophotometer […]
Real Time PCR was performed by using ABI PRISM 7000 Sequence Detection System (Applied Biosystems). […] The genes analysed included Vitamin D Receptor (VDR), Cytochrome P450 (CYP24), Vascular Endothelial Growth Factor (VEGF), Estrogen Receptor alpha (ERα), Estrogen Receptor beta (ERβ), Progesterone Receptor (PR), Aromatase (CYP19), Cyclooxygenase type 2 (COX-2), Interleukin-8 (IL-8), Tumor Necrosis Factor alpha (TNF α), Caspase-3 (CASP3), Caspase-6 (CASP6), Ki-67 Nuclear Antigen (Ki-67).
Samples were incubated 2 min at 50° C., 10 min at 95° C. and amplified for 40 cycles at 95° C. for 15 sec (denaturation) and at 60° C. for 1 min (annealing/extension). The amount of gene expression was normalized to rRNA 18S gene expression and the comparative CT methods (User Bulletin #2 ABI PRISM 7000 Sequence Detection System) was used for relative quantitation.

peritoneal macrophages = experiment: ELISA quantification of cytokine produced by peritoneal macrophages; format: in vivo, mice
Procedure: Peritoneal cells were recovered two weeks after unterus transfer in cold PBS, 2 mM EDTA, by peritoneal lavage of treated (Compound A at 100 ug/kg) and untreated (vehicle only) animals prepared according to the procedure described previously in Examples 1 to 3 (pool of 5 mice per group). Peritoneal macrophages were counted directly after collection using Turk reagent, washed, and placed into culture with RPMI/glutamax 5% FC I, pen/strep, Na pyruvate. After 2 hr at 37° C. the non adherent cells were removed and the macrophages were cultured for a further 48 hr. The supernatant was harvested and cytokines (TNF-alpha, IL1-alpha, IL1-beta, IL6, MIP-2 and VEGF) were quantified using a specific ELISA (R&D System DuoSet). All ELISA determinations were performed in duplicate on the undiluted sample. The total cells number plated was assessed by CyQuant test and values of protein production were normalized to cell number.

C=C1/C(=C\C=C2/CCC[C@]3(C)C([C@@H](C)C/C=C/C(O)(CC)CC)=CC[C@@H]23)C[C@@H](O)C[C@@H]1F [Compound A, 1-alpha-fluoro-25-hydroxy-16,23E-diene-26,27-bishomo-20-epi-cholecalciferol]
VDR expression (stromal cells; FIG. 3A): Little or no change | VEGF expression (stromal cells; FIG. 3B): Little or no change | Cyp24 expression (stromal cells; FIG. 3C): marked upregulation | Cyp19 expression (stromal cells; FIG. 3D): Little or no change | inflammatory cytokine and VEGF production (TNF-alpha, IL1-alpha, IL1-beta, IL6, MIP-2, VEGF) (peritoneal macrophages; 100 ug/kg versus vehicle, macrophages recovered two weeks after uterus transfer, cultured 48 hr, FIG. 11): dramatically reduced | cytokine production after re-activation in vitro with LPS (peritoneal macrophages; macrophages of treated animals, data not shown): still capable of producing the same cytokines
